Results from patent US6573293B2, “Pyrrole substituted 2-indolinone protein kinase inhibitors” (Sugen, Inc., priority 2000, dated 2003).

Key:
GST-Flk1 = target: T1, GST-Flk1 (Mus musculus, UniProt P35918); assay: GST-FLK-1 bioassay (bio flkGST); assay type: biochemical
T1 construct: GST-Flk1cd purified from sf9 recombinant baculovirus transformation; host or cells: Sf9 (baculovirus)

GST-FGFR1 = GST-FGFR1 (Homo sapiens, UniProt P11362); assay: FGFR1 bioassay (bio PGFR1); assay type: biochemical
PDGFR-β = target: T2, PDGFR-β (Homo sapiens, UniProt P09619); assay: PDGFR bioassay (bio PDGF); assay type: biochemical
T2 construct: host or cells: NIH 3T3

EGFR [1] = target: T3, EGFR (Homo sapiens, UniProt P00533); assay: EGFR bioassay (bio EGF); assay type: biochemical
T3 construct: A431 cell lysate (SUGEN, Inc.); host or cells: A431

[2] = target: T4, HA epitope-tagged full length pyk2 (FL.pyk2-HA) (Homo sapiens, UniProt Q14289); assay: PYK2 bioassay; assay type: biochemical; conditions: read-out: bio pyk2 IC50
T4 construct: host or cells: Sf9

HER-2 kinase = target: T5, HER-2 kinase (Homo sapiens, UniProt P04626); assay: Cellular HER-2 kinase assay; assay type: cell-based; conditions: read-out: Her2 Kinase IC50
T5 construct: Use EGFr/HER-2 chimera/3T3-C7 cell line for this assay; It is expressed in mouse NIH 3T3 clone C7 cells; P00533 (Epidermal growth factor receptor)

EGFR [3] = target: T3, EGFR; assay: cell EGF assay; assay type: cell-based
Method: Several of the assays described herein are performed in an ELISA (Enzyme-Linked Immunosorbent Sandwich Assay) format (Voller, et al., 1980, “Enzyme-Linked Immunosorbent Assay,” Manual of Clinical Immunology, 2d ed., Rose and Friedman, Am. Soc. Of Microbiology, Washington, D.C., pp. 359-371). The general procedure is as follows: a compound is introduced to cells expressing the test kinase, either naturally or recombinantly, for a selected period of time after which, if the test kinase is a receptor, a ligand known to activate the receptor is added. The cells are lysed and the lysate is transferred to the wells of an ELISA plate previously coated with a specific antibody recognizing the substrate of the enzymatic phosphorylation reaction. Non-substrate components of the cell lysate are washed away and the amount of phosphorylation on the substrate is detected with an antibody specifically recognizing phosphotyrosine compared with control cells that were not contacted with a test compound.

T5 sequence (P04626 720-987 limits assumed): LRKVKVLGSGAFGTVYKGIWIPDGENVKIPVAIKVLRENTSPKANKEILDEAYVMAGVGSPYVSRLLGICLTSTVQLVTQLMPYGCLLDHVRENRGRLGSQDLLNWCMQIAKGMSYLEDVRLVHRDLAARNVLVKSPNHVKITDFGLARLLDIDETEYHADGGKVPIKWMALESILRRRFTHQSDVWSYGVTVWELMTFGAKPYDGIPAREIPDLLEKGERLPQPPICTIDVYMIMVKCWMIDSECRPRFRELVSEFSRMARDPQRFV
T3 sequence (P00533 25-1210): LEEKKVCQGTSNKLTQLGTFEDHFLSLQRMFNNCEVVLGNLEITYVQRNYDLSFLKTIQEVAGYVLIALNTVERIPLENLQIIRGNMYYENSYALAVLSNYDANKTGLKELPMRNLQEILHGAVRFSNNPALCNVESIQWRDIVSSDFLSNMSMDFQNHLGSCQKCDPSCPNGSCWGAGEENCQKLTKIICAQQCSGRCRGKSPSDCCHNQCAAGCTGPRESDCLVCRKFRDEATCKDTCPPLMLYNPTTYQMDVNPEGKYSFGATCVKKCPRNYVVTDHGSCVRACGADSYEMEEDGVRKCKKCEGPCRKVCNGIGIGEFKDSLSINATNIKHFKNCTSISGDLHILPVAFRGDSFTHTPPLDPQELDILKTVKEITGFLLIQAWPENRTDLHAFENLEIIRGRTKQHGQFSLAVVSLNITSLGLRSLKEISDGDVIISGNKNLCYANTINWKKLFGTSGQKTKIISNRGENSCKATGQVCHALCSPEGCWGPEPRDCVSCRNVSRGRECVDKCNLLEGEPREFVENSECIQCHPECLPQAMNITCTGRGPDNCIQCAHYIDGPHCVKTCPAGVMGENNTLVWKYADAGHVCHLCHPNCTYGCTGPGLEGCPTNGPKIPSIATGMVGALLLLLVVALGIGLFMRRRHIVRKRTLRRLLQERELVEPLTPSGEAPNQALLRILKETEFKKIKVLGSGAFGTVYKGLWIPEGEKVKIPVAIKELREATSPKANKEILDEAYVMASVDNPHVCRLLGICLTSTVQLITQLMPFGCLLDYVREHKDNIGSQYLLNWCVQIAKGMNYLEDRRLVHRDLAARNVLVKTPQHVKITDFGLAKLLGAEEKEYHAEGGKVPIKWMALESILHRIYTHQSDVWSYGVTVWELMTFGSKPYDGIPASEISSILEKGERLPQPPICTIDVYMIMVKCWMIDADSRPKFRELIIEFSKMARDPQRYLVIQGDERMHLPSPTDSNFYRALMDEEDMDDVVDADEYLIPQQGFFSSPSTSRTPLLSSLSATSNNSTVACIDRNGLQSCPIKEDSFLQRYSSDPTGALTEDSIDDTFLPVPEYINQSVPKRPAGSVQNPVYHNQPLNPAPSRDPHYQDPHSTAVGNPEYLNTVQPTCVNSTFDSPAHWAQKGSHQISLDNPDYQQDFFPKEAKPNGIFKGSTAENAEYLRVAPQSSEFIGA
Chain of GST-FGFR1 (P11362 22-822): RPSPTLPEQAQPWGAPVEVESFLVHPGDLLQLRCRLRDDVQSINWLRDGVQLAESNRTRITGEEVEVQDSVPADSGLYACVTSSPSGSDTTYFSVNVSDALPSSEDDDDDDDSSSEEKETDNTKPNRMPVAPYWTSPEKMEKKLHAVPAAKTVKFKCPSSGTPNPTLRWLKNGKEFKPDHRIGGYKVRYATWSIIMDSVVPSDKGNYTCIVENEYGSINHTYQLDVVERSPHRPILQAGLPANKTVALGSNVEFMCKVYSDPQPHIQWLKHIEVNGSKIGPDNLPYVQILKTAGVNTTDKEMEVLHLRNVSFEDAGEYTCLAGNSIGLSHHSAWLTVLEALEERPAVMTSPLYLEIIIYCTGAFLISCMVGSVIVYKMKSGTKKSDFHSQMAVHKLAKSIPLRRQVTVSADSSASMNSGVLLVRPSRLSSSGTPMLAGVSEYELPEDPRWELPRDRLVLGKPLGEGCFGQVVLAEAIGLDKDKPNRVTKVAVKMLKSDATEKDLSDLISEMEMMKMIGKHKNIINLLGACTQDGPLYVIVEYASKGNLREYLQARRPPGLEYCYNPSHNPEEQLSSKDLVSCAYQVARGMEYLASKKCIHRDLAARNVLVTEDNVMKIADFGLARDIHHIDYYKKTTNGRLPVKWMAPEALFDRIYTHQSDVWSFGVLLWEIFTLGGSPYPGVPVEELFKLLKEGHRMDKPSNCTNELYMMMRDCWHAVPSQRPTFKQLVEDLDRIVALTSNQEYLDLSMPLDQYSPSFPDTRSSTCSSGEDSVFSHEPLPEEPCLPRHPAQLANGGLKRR
T1 sequence (P35918 784-1345 limits assumed): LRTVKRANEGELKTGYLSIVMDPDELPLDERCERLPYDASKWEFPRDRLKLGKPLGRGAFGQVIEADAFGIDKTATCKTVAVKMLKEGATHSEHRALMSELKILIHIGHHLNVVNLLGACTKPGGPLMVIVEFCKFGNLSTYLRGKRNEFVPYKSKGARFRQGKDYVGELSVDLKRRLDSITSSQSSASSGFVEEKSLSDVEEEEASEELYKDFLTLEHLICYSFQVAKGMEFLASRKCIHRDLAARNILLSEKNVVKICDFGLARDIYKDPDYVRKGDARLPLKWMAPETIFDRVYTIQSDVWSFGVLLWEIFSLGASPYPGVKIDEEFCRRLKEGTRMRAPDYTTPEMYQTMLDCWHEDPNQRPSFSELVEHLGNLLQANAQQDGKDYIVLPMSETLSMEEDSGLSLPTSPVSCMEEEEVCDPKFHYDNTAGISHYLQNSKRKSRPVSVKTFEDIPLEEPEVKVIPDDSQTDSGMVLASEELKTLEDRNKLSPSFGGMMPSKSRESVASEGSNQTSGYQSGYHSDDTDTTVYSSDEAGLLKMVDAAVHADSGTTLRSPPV
T4 sequence (Q14289 whole entry): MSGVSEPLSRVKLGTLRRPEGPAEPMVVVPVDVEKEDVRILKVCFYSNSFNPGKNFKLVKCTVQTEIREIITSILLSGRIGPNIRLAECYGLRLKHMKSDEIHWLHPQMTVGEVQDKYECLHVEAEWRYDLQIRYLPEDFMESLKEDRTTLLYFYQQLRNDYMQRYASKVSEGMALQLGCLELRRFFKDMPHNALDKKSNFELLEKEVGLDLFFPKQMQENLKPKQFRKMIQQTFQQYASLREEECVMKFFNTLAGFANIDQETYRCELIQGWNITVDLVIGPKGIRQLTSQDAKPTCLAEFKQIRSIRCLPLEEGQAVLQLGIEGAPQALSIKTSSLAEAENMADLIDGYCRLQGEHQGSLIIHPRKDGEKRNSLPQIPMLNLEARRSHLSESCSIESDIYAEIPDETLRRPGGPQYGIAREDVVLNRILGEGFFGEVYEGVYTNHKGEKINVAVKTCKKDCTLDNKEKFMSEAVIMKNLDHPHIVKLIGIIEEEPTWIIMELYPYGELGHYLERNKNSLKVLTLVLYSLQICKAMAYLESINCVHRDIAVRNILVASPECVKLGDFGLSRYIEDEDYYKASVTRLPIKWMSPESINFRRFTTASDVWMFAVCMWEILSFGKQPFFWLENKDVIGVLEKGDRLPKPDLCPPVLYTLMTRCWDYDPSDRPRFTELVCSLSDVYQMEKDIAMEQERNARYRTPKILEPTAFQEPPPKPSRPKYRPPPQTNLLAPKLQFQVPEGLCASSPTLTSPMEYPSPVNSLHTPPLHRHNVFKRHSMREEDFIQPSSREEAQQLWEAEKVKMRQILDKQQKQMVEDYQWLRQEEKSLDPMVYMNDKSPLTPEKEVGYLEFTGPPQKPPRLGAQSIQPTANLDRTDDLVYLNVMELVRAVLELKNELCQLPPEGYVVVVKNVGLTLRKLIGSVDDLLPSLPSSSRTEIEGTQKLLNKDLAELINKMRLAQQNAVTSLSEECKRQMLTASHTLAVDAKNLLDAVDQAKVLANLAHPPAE
T2 sequence (P09619 33-1106): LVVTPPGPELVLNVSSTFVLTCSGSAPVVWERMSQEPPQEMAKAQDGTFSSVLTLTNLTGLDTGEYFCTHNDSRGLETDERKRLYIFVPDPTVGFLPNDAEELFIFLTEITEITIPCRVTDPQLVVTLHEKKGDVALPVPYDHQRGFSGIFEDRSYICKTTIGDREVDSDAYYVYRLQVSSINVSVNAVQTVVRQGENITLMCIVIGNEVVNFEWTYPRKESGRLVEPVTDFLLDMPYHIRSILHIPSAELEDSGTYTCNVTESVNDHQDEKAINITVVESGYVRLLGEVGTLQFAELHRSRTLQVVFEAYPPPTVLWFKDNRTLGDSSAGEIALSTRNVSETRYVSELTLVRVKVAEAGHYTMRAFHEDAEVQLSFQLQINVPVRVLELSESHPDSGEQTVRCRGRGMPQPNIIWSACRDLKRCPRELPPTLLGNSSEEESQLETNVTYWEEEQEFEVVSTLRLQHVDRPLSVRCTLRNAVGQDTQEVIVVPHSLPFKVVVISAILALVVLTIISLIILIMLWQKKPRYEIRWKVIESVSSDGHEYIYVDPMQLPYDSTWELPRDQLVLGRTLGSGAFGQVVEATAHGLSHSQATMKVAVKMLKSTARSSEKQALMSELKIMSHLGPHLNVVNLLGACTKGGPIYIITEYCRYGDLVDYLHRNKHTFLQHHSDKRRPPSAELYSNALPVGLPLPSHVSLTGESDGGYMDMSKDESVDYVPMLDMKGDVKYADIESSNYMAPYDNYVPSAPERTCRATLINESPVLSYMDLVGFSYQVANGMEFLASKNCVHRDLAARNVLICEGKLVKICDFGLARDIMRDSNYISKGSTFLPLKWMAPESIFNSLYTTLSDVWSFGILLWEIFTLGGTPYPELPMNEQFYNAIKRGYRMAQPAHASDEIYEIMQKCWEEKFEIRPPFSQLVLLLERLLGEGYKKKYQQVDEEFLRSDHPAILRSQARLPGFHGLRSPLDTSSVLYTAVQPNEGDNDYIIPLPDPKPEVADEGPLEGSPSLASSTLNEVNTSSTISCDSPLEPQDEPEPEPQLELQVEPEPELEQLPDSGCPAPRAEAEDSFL

IC50 (GST-Flk1)	IC50 (GST-FGFR1)	IC50 (PDGFR-β)	IC50 (EGFR [1])	IC50 [2]	IC50 (HER-2 kinase)	IC50 (EGFR [3])	Compound
1.45 µM	1.3 µM	19.6 µM	41.8 µM	3.58 µM	–	–	Cc1[nH]c(/C=C2\C(=O)Nc3ccc(S(=O)(=O)Nc4ccccc4)cc32)c(C)c1C(=O)N1CCN(C)CC1 [Example 86, 3-[3,5-Dimethyl-4-(4-methyl-piperazine-1-carbonyl)-1H-pyrrol-2-ylmethylene]-2-oxo-2,3-dihydro-1H-indole-5-sulfonic acid phenylamide]
0.2 µM	0.8 µM	2.59 µM	> 100 µM	–	3.76 µM	–	Cc1[nH]c(/C=C2\C(=O)Nc3cccc(CCO)c32)c(C)c1C(=O)N1CCN(C)CC1 [Example 85, 3-[3,5-Dimethyl-4-(4-methyl-piperazine-1-carbonyl)-1H-pyrrol-2-ylmethylene]-4-(2-hydroxy-ethyl)-1,3-dihydroindol-2-one]
1.38 µM	–	12.5 µM	67.2 µM	0.006 µM	5.86 µM	–	Cc1[nH]c(/C=C2\C(=O)Nc3ccc(S(=O)(=O)Nc4cccnc4)cc32)c(C)c1C(=O)NCCN1CCCC1 [Example 84, 2,4-Dimethyl-5-[2-oxo-5-(pyridin-3-ylsulfamoyl)-1,2-dihydroindol-3-ylidenemethyl]-1H-pyrrole-3-carboxylic acid (2-pyrrolidin-1-yl-ethyl)amide]
3.57 µM	> 20 µM	> 100 µM	> 100 µM	–	> 100 µM	> 100 µM	CCOC(=O)c1cc(C)c(/C=C2\C(=O)Nc3ccc(Cl)cc32)[nH]1 [Example 4, 5-(5-Chloro-2-oxo-1,2-dihydroindol-3-ylidenemethyl)-4-methyl-1H-pyrrole-2-carboxlyc acid ethyl ester]
0.34 µM	0.41 µM	9.46 µM	2.18 µM	0.008 µM	86.9 µM	–	Cc1[nH]c(/C=C2\C(=O)Nc3ccc(S(=O)(=O)Nc4cccc(Cl)c4)cc32)c(C)c1C(=O)NCCN1CCCC1 [Example 83, 5-[5-(3-Chloro-phenylsulfamoyl)-2-oxo-1,2-dihydroindol-3-ylidenemethyl]-2,4-dimethyl-1H-pyrrole-3-carboxylic acid (2-pyrrolidin-1-yl-ethyl)amide]
2.03 µM	7.69 µM	6.88 µM	–	0.31 µM	–	–	Cc1[nH]c(/C=C2\C(=O)Nc3ccc(S(=O)(=O)N(C)C)cc32)c(C)c1C(=O)NCCN1CCCC1 [Example 82, 5-(5-Dimethylsulfamoyl-2-oxo-1,2-dihydroindol-3-ylidenemethyl)-2,4-dimethyl-1H-pyrrole-3-carboxylic acid (2-pyrrolidin-1-yl-ethyl)amide]
8.3 µM	16.1 µM	> 100 µM	> 100 µM	–	> 100 µM	> 100 µM	Cc1cc(C(=O)O)[nH]c1/C=C1\C(=O)Nc2ccc(Cl)cc21 [Example 5, 5-(5-Chloro-2-oxo-1,2-dihydroindol-3-ylidenemethyl)-4-methyl-1H-pyrrole-2-carboxylic acid]
3.27 µM	7.56 µM	6.46 µM	–	0.17 µM	9.1 µM	–	CCN(CC)CCNC(=O)c1c(C)[nH]c(/C=C2\C(=O)Nc3ccc(S(=O)(=O)N(C)C)cc32)c1C [Example 87, 5-(5-Dimethylsulfamoyl-2-oxo-1,2-dihydroindol-3-ylidenemethyl)-2,4-dimethyl-1H-pyrrole-3-carboxylic acid (2-diethylaminoethyl)amide]
0.96 µM	–	> 100 µM	> 100 µM	–	16.4 µM	> 100 µM	CCN(CC)CCNC(=O)c1ccc(/C=C2\C(=O)Nc3cc(-c4ccccc4)ccc32)[nH]1 [Example 9, 5-(2-Oxo-6-phenyl-1,2-dihydroindol-3-ylidenemethyl)-1H-pyrrole-2-carboxylic acid (2-diethylaminoethyl)amide]
